Article PMC12535076, “Neurotherapeutic effects of Vutiglabridin as a Paraoxonase-2 modulator in preclinical models of Parkinson’s disease” (Molecular Neurodegeneration, 2025)

Columns and labels:
[1] = system: panel of a total of 225 mammalian proteins; assay: In vitro safety (off-target) screening panel; settings: 225 targets: ion channels, GPCR, nuclear receptors, kinases, enzymes, transporters; data not shown
Method: The overall safety of Vuti has been already established through human phase 1 clinical trial (NCT04732988, NCT04733001, NCT04703764). However, for its potential repositioning as a central nervous system (CNS)-targeting drug candidate, we performed a comprehensive neurotoxicity assessment of Vuti through in vitro safety screening. Interactions of Vuti were tested against an extensive panel of a total of 225 mammalian proteins, including ion channels, G-protein coupled receptors (GPCR), nuclear receptors, kinases, non-kinase enzymes, and drug transporters, cardiac function, and drug-drug interactions. Additionally, these also examined whether Vuti interacted with reported direct targets of glabridin [37], such as estrogen receptor, peroxisome proliferator-activated receptor gamma (PPARγ), and cyclooxygenase 2 (COX-2).

[2] = system: primary cultured astrocytes; assay: Intracellular H2O2 (oROS-G sensor) in 6-OHDA-treated astrocytes; assay type: cell-based
Method: Intracellular H2O2 levels in astrocytes were measured using a genetically encoded oROS-G plasmid, which is highly sensitive and specific for H2O2 with rapid on-and-off kinetics. The plasmid was generously provided by Dr. Andre Berndt and was cloned under the GFAP104 promoter. Transfection into primary cultured hippocampal astrocytes was carried out using the NeoNTM transfection system (Invitrogen). Astrocytes were seeded into 96-well black plates (ibidi, USA) and treated with 6-OHDA (10 µM) in the presence of 1, 10, and 30 µM of Vuti. Fluorescence changes were monitored using a Nikon A1 confocal microscope over a period of 21 h for live cell imaging. The fluorescence intensity for each region of interest (ROI) was analyzed using Nikon software, and the data were normalized to control values for the IC50. The IC50 value for Vuti was determined using GraphPad Prism software.

[3] = system: SH-SY5Y human neuroblastoma cells; assay: Cell-based mitochondrial activity assays in MPP+-treated SH-SY5Y cells
Method: Human SH-SY5Y neuroblastoma cells (ATCC® (CRL-2266™; Manassas, VA, USA) were first cultured in Dulbecco’s Modified Eagle Medium (DMEM)/F12 supplemented with 10% fetal bovine serum (FBS), 100 U/mL penicillin, and 100 µg/mL streptomycin (complete media, CM) at 37 °C with 5% CO2. Cells (5 × 10^4 cells/well) then were cultured in 96-well plates for 24 h followed by incubation in serum-deficient media (SDM, culture media containing 0.5% FBS) for 16 h. […] The treated cells were harvested according to the purpose and analyzed.
A systemic cell-based mitochondrial function analysis system was established using SH-SY5Y cells in 96-well plates based on fluorescence detection methods as described previously. The assay system covers quantitative assays for methyl thiazyl tetrazolium-mitochondrial dehydrogenase activity (MTT), TMRE-based mitochondrial membrane potential (TMRE), ATP contents, and ROS of cells. Cells in black 96-well culture plate were incubated with 200 nM TMRE and 0.5 µM Hoechst 33,342 for 30 min at 37 °C in phenol red-free SDM, or with 1 µM CM-H2DCFDA or 5 µM MitoSOX and 0.5 µM Hoechst 33,342 for 1 h at 37 °C. Fluorescence intensities at 550 nm/580 nm for TMRE, at 510 nm/580 nm MitoSOX, or at 494 nm/522 nm for DCF-DA were normalized by Hoechst intensity at 355 nm/480 nm (Spectramax Gemini EM, Molecular Devices, Sunnyvale, CA, USA).
Endogenous OCR was measured in adherent SH-SY5Y cells using a Seahorse XF-24 Analyzer (Seahorse Bioscience, Billerica, MA, USA) following the manufacturer’s protocol with minor modifications. Briefly, OCR assays were performed using SH-SY5Y cells (5.0 × 10^3 cells/well) equilibrated in DMEM without sodium bicarbonate in XF-24 microplates. After measuring basal OCR for 3 min, oligomycin (1 µg/mL), carbonyl cyanide-p-trifluoromethoxyphenylhydrazone (FCCP) (0.3 µM), and rotenone (0.1 µM) were consecutively added into each well to reach their final working concentrations. The OCR was calculated from 3-min measurement cycles and normalized to cell number.

MAO-B = target: T1, MAO-B (Homo sapiens, UniProt P27338); assay: ROS Glo based MAO-B enzyme activity assay; assay type: biochemical; settings: read-out: IC50, MAO-B assay, ROS-Glo method
T1 sequence (P27338 1-520): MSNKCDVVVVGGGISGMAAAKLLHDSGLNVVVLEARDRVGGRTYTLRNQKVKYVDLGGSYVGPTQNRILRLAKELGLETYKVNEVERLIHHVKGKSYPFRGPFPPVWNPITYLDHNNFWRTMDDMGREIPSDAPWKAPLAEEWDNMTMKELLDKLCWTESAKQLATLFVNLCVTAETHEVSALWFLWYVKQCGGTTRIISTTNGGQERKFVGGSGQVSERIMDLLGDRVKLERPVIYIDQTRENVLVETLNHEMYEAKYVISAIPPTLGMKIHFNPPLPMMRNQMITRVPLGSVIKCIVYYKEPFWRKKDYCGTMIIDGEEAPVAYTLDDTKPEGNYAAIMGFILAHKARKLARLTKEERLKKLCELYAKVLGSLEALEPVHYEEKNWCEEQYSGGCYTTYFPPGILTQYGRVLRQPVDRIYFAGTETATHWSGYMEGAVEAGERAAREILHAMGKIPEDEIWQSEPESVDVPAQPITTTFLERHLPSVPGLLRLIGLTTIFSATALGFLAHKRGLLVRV
Method: An enzyme solution was prepared by diluting 10 µL of a 2.5 mg/mL MAO-A or MAO-B stock in 10 mL of 50 mM sodium phosphate buffer (pH 7.4). A substrate solution was prepared by diluting 200 µL of a 100 mM benzylamine (or tyramine) stock in 10 mL phosphate buffer to achieve a final concentration of 1 mM. For each 96-well plate experiment, 12.5 µL of a 1× H2O2 probe solution was added to 1 mL of the probe dilution buffer from the ROS Glo™ kit. Separately, 40 µL of cysteine and enhancer were diluted into 4 mL of Luciferin solution. In each well, 49 µL of the enzyme solution was dispensed, followed by 1 µL of the test compound, and incubated for 30 min. […] Next, 10 µL of the H2O2 probe solution was added and incubated for 15 min. […] Luminescence was subsequently recorded using a microplate luminescence reader (SpectraMax i3, Molecular Devices).

## CCOc1ccc(C2COc3c(ccc4c3CCC(C)(C)O4)C2)c(O)c1 (centres unmarked) [Vuti, Vutiglabridin]
[1]
  off-target interactions: no significant unexpected targets
[2]; 30 µM Vuti
  ROS levels in 6-OHDA-treated astrocytes: significantly reduced ROS levels
[2]; Astrocyte, 6-OHDA 10 µM treated primary cultured astrocytes, Vuti 1, 10, 30 µM, read-out: normalized IC50 (ROS, oROS-G sensor imaging)
  IC50: 21 µM
[3]; 1 mM MPP+ 20 h, then Vuti 1~100 nM 24 h, Seahorse XF-24
  MPP+-induced reduction in OCR (basal respiration, ATP turnover rate, maximum respiratory capacity): dose-dependently and significantly rescued
[3]; 1 mM MPP+ 24 h, then Vuti 0~1 µM 24 h
  MPP+-induced mitochondrial damage (NADH dehydrogenase complex 1 activity, ATP content, DCF-DA ROS, MitoSOX superoxide): significantly reversed
[3]; 1 mM MPP+, post-treatment with Vuti
  ATP production rates through glycolysis (GlycoATP) and mitochondria (mitoATP): normalized
[3]; SH-SY5Y, 1 mM MPP+
  concentration at which significant restoration of MPP+-induced damage was observed: 1 nM
MAO-B
  IC50: 58.3 µM
